Experimental data from publication PMC10179272, “SARS-CoV-2 Binding and Neutralization Properties of Peptides Derived from N-Terminus of Human ACE2” (International Journal of Molecular Sciences, 2023).
Where a SMILES comes first, the peptide text is derived from it. Bridges are numbered along the chain shown (N, C = ends). [ ]: non-standard residue; d: D form. S5 = C=CCCC[C@](C)(N)C(=O)O

Tests used:
[1] = test system: full-length SARS-CoV-2 S protein (Wuhan variant); test: Competition of P1st with FAM-labeled peptides for S protein binding (fluorescent immunoassay); settings: P1st at 25 μM; P1-FAM 3.25 to 25 μM; fluorescence intensity; result in words
[2] = test system: PVP with Wuhan variant S-protein
[3] = test system: live SARS-CoV-2 virus (variant B.1.1)
[4] = test system: full-length S protein of SARS-CoV-2 (Wuhan variant); format: binding; settings: S protein 1 μg/mL coated; peptide incubated 2 h at RT; fluorescence 483 nm excitation/530 nm emission; result in words
[5] = test system: full-length S protein of SARS-CoV-2 (Wuhan variant); test: Immunosorbent assay of P2 binding to immobilized S protein, detected with anti-P1 antibodies; settings: P2 incubated 2 h at 37 °C; anti-P1 antibody 1 μg/mL, anti-rabbit IgG-HRP, TMB, A450-620; result in words

Compound: CC[C@H](C)[C@H](NC(=O)[C@@H](NC(=O)[C@H](CO)NC(C)=O)[C@@H](C)O)C(=O)N[C@@H](CCC(=O)O)C(=O)N[C@@H](CCC(=O)O)C(=O)N[C@@H](CCC(N)=O)C(=O)N[C@@H](C)C(=O)N[C@@H](CCCCN)C(=O)N[C@H](C(=O)N[C@@]1(C)CCCC=CCCC[C@@](C)(C(=O)N[C@@H](CC(N)=O)C(=O)N[C@@H](Cc2c[nH]cn2)C(=O)N[C@@H](CCC(=O)O)C(=O)N[C@@H](C)C(=O)N[C@@H](CCC(=O)O)C(=O)N[C@@H](CC(=O)O)C(=O)N[C@@H](CC(C)C)C(=O)N[C@@H](Cc2ccccc2)C(=O)N[C@@H](Cc2ccc(O)cc2)C(=O)N[C@@H](CCC(N)=O)C(=O)N[C@@]2(C)CCCC=CCCC[C@@](C)(C(=O)N[C@@H](Cc3c[nH]c4ccccc34)C(=O)N[C@@H](CC(N)=O)C(=O)N[C@@H](Cc3ccc(O)cc3)C(N)=O)NC(=O)[C@H](C)NC(=O)[C@H](CC(C)C)NC(=O)[C@H](CO)NC2=O)NC(=O)[C@H](CCCCN)NC(=O)[C@H](CC(=O)O)NC(=O)[C@H](CC(C)C)NC1=O)[C@@H](C)O [P1st] (Ac-STIEEQAKT[S5]LDK[S5]NHEAEDLFYQ[S5]SLA[S5]WNY-NH2; staple 10-14, 25-29)
- Competition with other peptides (P1-FAM, SAP) for binding to S protein [1]: able to efficiently compete
- IC50 ([2]; 48 h): 25.4 µM
- IC50 (BA.1-like (Omicron) PVP; 48 h): 18.3 µM
- IC50 ([3]; live virus (variant B.1.1, 4 h)): 7.04 µM

Compound: EDLFYQ [SAP6, short ACE2 peptide, 6 aa, described previously [23]]
- Binding of FAM-labeled peptide to immobilized full-length S protein [4]: reasonable binding

Compound: EDLFYQSSL [SAP2, short ACE2 peptide, 9 aa, described previously [23]]
- Binding of FAM-labeled peptide to immobilized full-length S protein [4]: reasonable binding

Compound: GKGDFRIL [SAP4, reference compound]
- Binding of FAM-labeled peptide to immobilized full-length S protein [4]: failed to bind
- Inhibitory activity on PVP (Wuhan S protein) entry at high concentration ([2]; 200 μM peptide, HEK/ACE2 cells, judged non-specific, result in words): Marked inhibitory activity
- Inhibitory activity on live SARS-CoV-2 infection of Vero cells at high concentration ([3]; 300 μM peptide, […], judged non-specific, result in words): Inhibitory activity

Compound: MSTIEEQAKTFLDKFNHEAEDLFYQSSLASWNYNTNITEENVQNMNNAGDKWSAFLKEQSTLAQMYPLQEIQNLTVKLQLQALQ [P2]
- Inhibition of PVP (Wuhan S protein) entry into ACE2-overexpressing cells ([2]; peptide 0 to 56 μM (Figure 3), […], flow cytometry, result in words): could not inhibit entry
- P2 binding to immobilized full-length S protein [5]: demonstrated their binding ability
- Inhibition of PVP (BA.1-like S protein) entry into ACE2-overexpressing cells (BA.1-like (Omicron) PVP; […], flow cytometry, result in words): failed to inhibit PVP entry

Compound: STIEEQAKTFLDAFNHAAAALFAQSSLASWNY [P1m, control P1 with alanine substitutions of key amino acids]
- Binding of FAM-labeled peptide to immobilized full-length S protein [4]: failed to bind

Compound: TFLDKFNHEAEDLFYQ [SAP1, short ACE2 peptide, 16 aa, described previously [23]]
- Binding of FAM-labeled peptide to immobilized full-length S protein [4]: reasonable binding
